Test [1] addresses Transmembrane protease serine 4 (Homo sapiens) (UniProt Q9NRS4). As to the kind of experiment: Inhibition of TMPRSS4 serine protease domain (Val205 to Leu437 residues) (unknown origin) expressed in Escherichia coli BL21 (DE3) at 30 uM using Z-Phe-Arg7-amido-4-methylcoumarin hydrochloride substrate measured at 5 mins interval for 150 mins by fluorescence based assay relative to control.

For test [2] the target is unchanged. As to the kind of experiment: Inhibition of TMPRSS4 serine protease domain (Val205 to Leu437 residues) (unknown origin) expressed in Escherichia coli BL21 (DE3) at 10 uM using Z-Phe-Arg7-amido-4-methylcoumarin hydrochloride substrate measured at 5 mins interval for 150 mins by fluorescence based assay relative to control.
The target is the same in test [3]. As to the kind of experiment: Inhibition of TMPRSS4 serine protease domain (Val205 to Leu437 residues) (unknown origin) expressed in Escherichia coli BL21 (DE3) at 100 uM using Z-Phe-Arg7-amido-4-methylcoumarin hydrochloride substrate measured at 5 mins interval for 150 mins by fluorescence based assay relative to control.
The target is the same in test [4]. Nature of the test: Inhibition of TMPRSS4 serine protease domain (Val205 to Leu437 residues) (unknown origin) expressed in Escherichia coli BL21 (DE3) at 1 mM using Boc-Gln-Ala-Arg-7-amido-4-methylcoumarin hydrochloride substrate measured at 5 mins intervals.

The structures appear in SMILES notation. Activity calls are given as the source filed them. No cut-off for these calls is given here.

Chain of Transmembrane protease serine 4 (Homo sapiens) (Q9NRS4 whole entry, the tested form may be a part): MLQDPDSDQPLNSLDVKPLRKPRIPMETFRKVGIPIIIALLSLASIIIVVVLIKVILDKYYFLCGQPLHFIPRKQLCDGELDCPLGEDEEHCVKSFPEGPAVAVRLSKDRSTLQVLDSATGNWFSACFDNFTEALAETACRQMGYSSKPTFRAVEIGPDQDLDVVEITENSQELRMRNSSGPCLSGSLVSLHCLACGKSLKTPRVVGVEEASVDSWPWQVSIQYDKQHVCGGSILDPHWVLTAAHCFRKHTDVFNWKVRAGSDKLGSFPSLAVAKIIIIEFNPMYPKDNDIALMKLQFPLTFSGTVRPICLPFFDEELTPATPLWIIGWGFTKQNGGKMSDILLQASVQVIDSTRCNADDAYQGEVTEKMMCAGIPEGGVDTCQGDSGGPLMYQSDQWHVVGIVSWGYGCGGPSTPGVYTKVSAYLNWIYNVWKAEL

The inhibition is the percentage by which the read-out fell short of the control. `O=C(Nc1cc(C(F)(F)F)cc(C(F)(F)F)c1Cl)c1cc(-c2ccc(F)cc2F)ccc1O`: the inhibition in test [1] worked out at 31%; in test [2], 5%.

`O=C(Nc1ccc(C(F)(F)F)c(Br)c1)c1cc(Cl)ccc1O`: the values for the inhibition in test [1], in test [2] and in test [3] were 46%, 30% and 98%, respectively.

For the molecule `NCCc1ccc(S(=O)(=O)F)cc1`, in test [4], the inhibition entry is “Active”.

For `Cc1c(NC(=O)c2cc(Cl)ccc2O)cccc1C(F)(F)F`, the inhibition in test [1] was found to be 77%.

The record behind these values is ChEMBL document CHEMBL4418482, “2-hydroxyarylamide derivative or pharmaceutically acceptable salt thereof, preparation method thereof, and pharmaceutical composition for preventing or treating cancer containing same as active ingredient” (2014).
